Assay results: patent US20240252463A1, “METHODS OF TREATING FIBROTIC PATHOLOGIES” (Mayo Foundation for Medical Education and Research, priority 2018, published 2024)

Legend:
cAMP = cAMP Assay (cAMP-Glo) in lung fibroblasts; format: cell-based, human; conditions: IPF patient-derived fibroblasts, 20 minutes, DHX 10 μM
Description: cAMP Assay: IPF patient derived fibroblasts were plated in EMEM containing 10% FBS overnight. […] 20 minutes prior to cell lysis media was removed and cells were treated with “induction buffer” containing nonselective phosphodiesterase inhibitors and the indicated concentration of compound(s). Luminescence was measured on a Flexstation 3 (Molecular Devices) plate reader.

pYAP (Ser 127) = experiment: Western blotting of YAP serine 127 phosphorylation, IMR-90 cells; format: cell-based, human; conditions: IMR-90, DHX 10 μM, 2 hours
Source text: Scale bar represents 100 μm. […] Scale bar represents 100 μm.

αSMA+ stress fibers = experiment: TGFβ-induced αSMA+ stress fiber formation; format: cell-based, human; conditions: IMR-90, TGFβ 72 hours, DHX 10 μM from 48-72 hours
Description: ImmunofluorescenceMicroscopy: Cells were plated into 96 well plates (Corning 3603) in their specific growth media and allowed to attach (8 hours). Media was then exchanged for the indicated conditions for each experiment. Cells were fixed in 3.7% formalin (Sigma-Aldrich), permeabilized in 0.25% Triton X-100 (Sigma-Aldrich) and then blocked with 1% BSA for 1 h. Cells or tissue sections were incubated overnight with mouse monoclonal antibody against αSMA (Sigma-Aldrich F3777), and/or a rabbit monoclonal antibody against YAP/TAZ (Cell Signaling D24E4) diluted 1:200 in PBS with 1% BSA.

[1] = system: IPF patient derived fibroblasts; experiment: Traction Force Microscopy of IPF patient derived fibroblasts; format: cell-based, human; conditions: IPF fibroblasts on 6.4 kPa matrices
Description: Traction Force Microscopy: Traction analysis was conducted as previously described. Briefly, polyacrylamide substrates with shear moduli of 6.4 kPa were prepared, and fluorescent sulfate-modified latex microspheres (0.2 μm, 505/515 ex/em) (FluoSpheres, Life Technologies) were conjugated to the gel surfaces after treatment with 1 mg ml^−1 of dopamine hydrochloride (Sigma-Aldrich) in 50 mM HEPES solution (pH 8.5). IPF patient derived fibroblasts were plated on the gels overnight and treated as indicated before traction force measurements. Images of gel surface-conjugated fluorescent beads were acquired for each cell before and after trypsinization using a Nikon ECLIPSE Ti microscope at ×10 magnification. Traction forces were estimated by measuring bead displacement fields and computing corresponding traction fields using TractionsForAll (freely distributed program that calculates 2-D tractions exerted by an adherent cell on its substrate).

NIH-3T3 cells = experiment: Matrix Remodeling Measured by Atomic Force Microscopy (NIH-3T3 cell-derived matrix); format: cell-based, mouse; conditions: TGFβ + ascorbic acid 72 hours, then 10 μM DHX additional 72 hours
Description: Matrix Remodeling Measured by Atomic Force Microscopy: NIH-3T3 cells were plated to confluence onto gelatin coated (Cell Biologics) AFM compatible tissue culture dishes (Willco) in DMEM containing 10% FBS. After cells attached overnight media was replaced with DMEM containing 2% FBS, 2 ng/mL TGFβ, and 20 μg/mL ascorbic acid to promote matrix deposition. After 72 hours, measurements were made using a BioScope Catalyst AFM (Bruker, MA, USA). Microindentations were performed using a 2.5 μm radius sphere-tipped probe (Novascan, IA, USA) with a spring constant determined at ˜100 pN nm^−1 by thermal fluctuation method. For each dish, 3 different areas were analyzed. Force curves were acquired with MIRO 2.0 (NanoScope 9.1; Bruker) at an indentation rate of […] and a ramp size of […] on different points. 75 force curves were performed per cell dish (25 per area). The Young's modulus E was determined by the fitting of force curve by Hertz model using NanoScope Analysis software (Bruker) and considering Poisson's ratio of 0.5. […]
The results above were consistent with DHX not only attenuating key aspects of fibroblast pro-fibrotic activation, but potentially shifting their phenotype toward one that promotes fibrosis clearance and resolution. […] After 72 hours the stiffness of the cells and their cell-derived matrix were measured using atomic force microscopy (AFM). […]

**Q.** With Oc1cc2c(cc1O)[C@H]1c3ccccc3CN[C@@H]1CC2 (racemic) [Dihydrexidine, dihydrexidine] as the molecule, how does the cAMP (cAMP) read?
**A.** Its cAMP is “elevated cAMP”.

**Q.** And the “YAP serine 127 phosphorylation” value (pYAP (Ser 127))?
**A.** The value was “promoted YAP serine 127 phosphorylation”.

**Q.** And the “myofibroblastic transition (αSMA+ stress fibers)” value (αSMA+ stress fibers)?
**A.** The value was “reversed this transition”.

**Q.** And the “contractile forces (traction force microscopy)” value [1]?
**A.** Its value is “significantly and dose-dependently reduced the contractile forces”.

**Q.** And the “stiffness of cells and cell-derived matrix (AFM)” value (NIH-3T3 cells)?
**A.** The value was “significantly reduced the observed stiffness”.
